This note sets out measurements from patent publication US5843941A, “Ras farnesyl transferase inhibitors” (Genentech, Inc., priority 1994, dated 1998).

The assay has as its target T1, CAAX GG transferase (Rattus norvegicus, UniProt P53610+Q04631).
T1 construct: partially purified CAAX GG transferase; from tissue
Kind of assay: Inhibition of CAAX GG transferase (geranylgeranyltransferase). It is filed as biochemical. From the text: FIG. 1 compares the inhibitory activity of compound 27B (denoted as BG269B in the figure) on protein prenyltransferases. […] Two other prenyltransferases, both of which transfer 20-carbon geranylgeranyl (GG) groups, have been identified in rat brain. One of thesse, CAAX GG transferase, attaches GG groups to proteins that terminate in CAAX sequences in which X is leucine.
The conditions used to assay the inhibition of CAAX farnesyltransferase are identical to those described above for the in vitro, assay described in Example 121. In FIG. 1B the assay mixture contained, in a final volume of 50 μl, 50 mM sodium Hepes (pH 7.2), 5 mM MgC12, 5 mM DTT, 0.3 mM Nonidet P-40, 0.2% octyl β-glucoside, 1% DMSO, 0.5 μM all trans [3H]geranylgeranyl pyrophosphate (33,000 dpm/pmol; ARC, Inc.), 5 μM recombinant p21^H-rasCVLL, 6.3 μg partially purified CAAX GG transferase (see Seabra, M. C., Reiss, Y., Casey, P. J., Brown, M. S., and Goldstein, J. L. Cell 268, 4055 (1993)) and varying concentrations of the indicated inhibitor. In FIG. 1C, the assay mixture contained in a final volume of 50 μl, 50 mM sodium Hepes (pH 7.2), 5 mM MgCl2, 5 mM DTT, 0.3 mM Nonidet P-40, 0.2% octyl β-D-glucoside, 1% DMSO, 0.5 μM all trans [3H]geranylgeranyl pyrophosphate (33,000 dpm/pmol; ARC, Inc.), 2 μM recombinant Rab1A, 2 ng each of purified Components A and B of Rab GG transferase (see Seabra, M. C., Goldstein, J. L., Sudhof, T. C., and Brown, M. S. J. Biol. Chem. 267, 14497 (1992)) and varying concentrations of the indicated inhibitor.
Each assay was carried out as described in Examples 121 and 122.

T1 sequence (P53610 whole entry, one chain of several): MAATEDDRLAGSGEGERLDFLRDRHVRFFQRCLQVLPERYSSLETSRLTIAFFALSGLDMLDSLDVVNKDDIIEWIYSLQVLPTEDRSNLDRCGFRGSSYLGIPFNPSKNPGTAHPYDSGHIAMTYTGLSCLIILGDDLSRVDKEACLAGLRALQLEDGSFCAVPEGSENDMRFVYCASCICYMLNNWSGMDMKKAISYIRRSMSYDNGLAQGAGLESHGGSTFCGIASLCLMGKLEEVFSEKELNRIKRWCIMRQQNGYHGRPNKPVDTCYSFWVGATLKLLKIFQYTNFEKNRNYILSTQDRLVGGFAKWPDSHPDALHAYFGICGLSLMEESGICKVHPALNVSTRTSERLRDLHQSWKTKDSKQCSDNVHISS

As to `CSCC[C@H](NC(=O)CN1C(=O)C(N(C)C(=O)[C@@H](N)CS)N=C(c2ccccc2)c2ccccc21)C(=O)O` (single isomer, unassigned) [27B], for the setting “FIG. 1B, p21H-rasCVLL substrate, read-out: IC0.5 CAAX GG transferase”, the IC50 was 35 nM. Moreover, the “fold higher concentration for CAAX GG transferase than for CAAX farnesyltransferase” value (selectivity vs CAAX farnesyltransferase) was “more than 100 fold”.
